In ChEMBL document CHEMBL1201861, “Genomics of Drug Sensitity in Cancer screening data, Wellcome Trust Sanger Institute”:

Columns and labels:
Assay in all cases: cells
COLO-792 = format: functional, cell-based, Homo sapiens; conditions: Homo sapiens, COLO-792
Description: SANGER: Inhibition of human COLO-792 cell growth in a cell viability assay.

COLO-824 = format: functional, cell-based, Homo sapiens; conditions: Homo sapiens, COLO-824
Description: SANGER: Inhibition of human COLO-824 cell growth in a cell viability assay.

COR-L23 = format: functional, cell-based, Homo sapiens; conditions: Homo sapiens, COR-L23;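 note: cell viability assay measuring how strongly compounds suppress growth of COR-L23 cells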
Description: SANGER: Inhibition of human COR-L23 cell growth in a cell viability assay.

D-247MG = format: functional, cell-based, Homo sapiens; conditions: Homo sapiens, D-247MG
Description: SANGER: Inhibition of human D-247MG cell growth in a cell viability assay.

ES1 = format: functional, cell-based, Homo sapiens; conditions: Homo sapiens, ES1;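 note: growth inhibition of ES1 cells, read out with a cell viability assay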
Description: SANGER: Inhibition of human ES1 cell growth in a cell viability assay.

ESS-1 = format: functional, cell-based, Homo sapiens; conditions: Homo sapiens, ESS-1;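 note: growth inhibition of human ESS-1 cells, read out by a cell viability assay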
Description: SANGER: Inhibition of human ESS-1 cell growth in a cell viability assay.

EOL1 = format: functional, cell-based; conditions: Homo sapiens;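 note: growth inhibition of EoL-1 cells, read out by a cell viability assay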
Description: SANGER: Inhibition of human EoL-1-cell cell growth in a cell viability assay.

HCC1187 = format: functional, cell-based, Homo sapiens; conditions: Homo sapiens, HCC1187;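 note: growth inhibition of HCC1187 cells, read out with a cell viability assay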
Description: SANGER: Inhibition of human HCC1187 cell growth in a cell viability assay.

HCC1395 = format: functional, cell-based, Homo sapiens; conditions: Homo sapiens, HCC1395;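 note: growth inhibition of HCC1395 cells, read out by a cell viability assay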
Description: SANGER: Inhibition of human HCC1395 cell growth in a cell viability assay.

J-RT3-T3-5 = format: functional, cell-based; conditions: Homo sapiens;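 note: cell viability assay measuring growth inhibition of human J-RT3-T3-5 cells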
Description: SANGER: Inhibition of human J-RT3-T3-5 cell growth in a cell viability assay.

JVM-3 = format: functional, cell-based; conditions: Homo sapiens;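 note: growth inhibition of human JVM-3 cells, read out with a cell viability assay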
Description: SANGER: Inhibition of human JVM-3 cell growth in a cell viability assay.

KINGS-1 = format: functional, cell-based, Homo sapiens; conditions: Homo sapiens, KINGS-1;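 note: cell viability assay measuring suppression of KINGS-1 cell growth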
Description: SANGER: Inhibition of human KINGS-1 cell growth in a cell viability assay.

KNS-42 = format: functional, cell-based, Homo sapiens; conditions: Homo sapiens, KNS-42;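 note: growth inhibition of KNS-42 cells, read out with a cell viability assay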
Description: SANGER: Inhibition of human KNS-42 cell growth in a cell viability assay.

KS-1 = format: functional, cell-based, Homo sapiens; conditions: Homo sapiens, KS-1;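 note: growth inhibition of KS-1 cells, read out with a cell viability assay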
Description: SANGER: Inhibition of human KS-1 cell growth in a cell viability assay.

KYSE-70 cell line = format: functional, cell-based, Homo sapiens; conditions: Homo sapiens, KYSE-70;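 note: cell viability assay read-out, with IC50 expressing suppression of KYSE-70 cell growth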
Description: SANGER: Inhibition of human KYSE-70 cell growth in a cell viability assay.

LAN-6 = format: functional, cell-based, Homo sapiens; conditions: Homo sapiens, LAN-6;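 note: growth inhibition of LAN-6 cells, determined with a cell viability assay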
Description: SANGER: Inhibition of human LAN-6 cell growth in a cell viability assay.

LN-405 = format: functional, cell-based, Homo sapiens; conditions: Homo sapiens, LN-405
Description: SANGER: Inhibition of human LN-405 cell growth in a cell viability assay.

MG-63 = format: functional, cell-based, Homo sapiens; conditions: Homo sapiens, MG-63;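 note: growth inhibition of human MG-63 cells, read out with a cell viability assay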
Description: SANGER: Inhibition of human MG-63 cell growth in a cell viability assay.

MPP-89 = format: functional, cell-based, Homo sapiens; conditions: Homo sapiens, MPP-89;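 note: growth inhibition of human MPP-89 cells, read out with a cell viability assay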
Description: SANGER: Inhibition of human MPP-89 cell growth in a cell viability assay.

NB5 = format: functional, cell-based, Homo sapiens; conditions: Homo sapiens, NB5;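 note: growth inhibition of NB5 cells, read out as cell viability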
Description: SANGER: Inhibition of human NB5 cell growth in a cell viability assay.

NCI-H2087 = format: functional, cell-based, Homo sapiens; conditions: Homo sapiens, NCI-H2087;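 note: growth inhibition determined with a cell viability readout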
Description: SANGER: Inhibition of human NCI-H2087 cell growth in a cell viability assay.

NCI-H2347 = format: functional, cell-based, Homo sapiens; conditions: Homo sapiens, NCI-H2347;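 note: growth inhibition of the cell line, read out with a cell viability assay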
Description: SANGER: Inhibition of human NCI-H2347 cell growth in a cell viability assay.

NCI-H2405 = format: functional, cell-based, Homo sapiens; conditions: Homo sapiens, NCI-H2405;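 note: growth inhibition of the human cell line, read out with a cell viability assay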
Description: SANGER: Inhibition of human NCI-H2405 cell growth in a cell viability assay.

NCI-H292 = format: functional, cell-based, Homo sapiens; conditions: Homo sapiens, NCI-H292;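 note: growth inhibition of NCI-H292 cells, read out with a cell viability assay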
Description: SANGER: Inhibition of human NCI-H292 cell growth in a cell viability assay.

NCI-H358 = format: functional, cell-based, Homo sapiens; conditions: Homo sapiens, NCI-H358;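 note: growth inhibition of NCI-H358 human cells, read out with a cell viability assay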
Description: SANGER: Inhibition of human NCI-H358 cell growth in a cell viability assay.

NCI-H661 = format: functional, cell-based, Homo sapiens; conditions: Homo sapiens, NCI-H661;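 note: cell viability assay read-out, IC50 being the concentration that inhibits growth of the cells by half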
Description: SANGER: Inhibition of human NCI-H661 cell growth in a cell viability assay.

NCI-H82 = format: functional, cell-based; conditions: Homo sapiens;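 note: growth inhibition of NCI-H82 cells, measured with a cell viability readout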
Description: SANGER: Inhibition of human NCI-H82 cell growth in a cell viability assay.

NKM-1 = format: functional, cell-based; conditions: Homo sapiens;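 note: growth inhibition of NKM-1 cells, read out with a cell viability assay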
Description: SANGER: Inhibition of human NKM-1 cell growth in a cell viability assay.

OCUB-M = format: functional, cell-based, Homo sapiens; conditions: Homo sapiens, OCUB-M;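 note: growth inhibition of the cancer cell line, read out through a cell viability assay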
Description: SANGER: Inhibition of human OCUB-M cell growth in a cell viability assay.

OVCAR-8 = format: functional, cell-based, Homo sapiens; conditions: Homo sapiens, OVCAR-8;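 note: growth inhibition of human OVCAR-8 cells, read out by a cell viability assay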
Description: SANGER: Inhibition of human OVCAR-8 cell growth in a cell viability assay.

RVH-421 = format: functional, cell-based, Homo sapiens; conditions: Homo sapiens, RVH-421
Description: SANGER: Inhibition of human RVH-421 cell growth in a cell viability assay.

SAS = format: functional, cell-based, Homo sapiens; conditions: Homo sapiens, SAS;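 note: growth inhibition of SAS cells, read out with a cell viability assay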
Description: SANGER: Inhibition of human SAS cell growth in a cell viability assay.

SF-126 = format: functional, cell-based, Homo sapiens; conditions: Homo sapiens, SF-126;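 note: growth inhibition of human SF126 cells, read out with a cell viability assay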
Description: SANGER: Inhibition of human SF126 cell growth in a cell viability assay.

SK-LU-1 = format: functional, cell-based, Homo sapiens; conditions: Homo sapiens, SK-LU-1;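 note: cell viability assay measuring growth inhibition of human SK-LU-1 cells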
Description: SANGER: Inhibition of human SK-LU-1 cell growth in a cell viability assay.

SW1990 = format: functional, cell-based, Homo sapiens; conditions: Homo sapiens, SW1990;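 note: cell growth inhibition determined with a viability assay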
Description: SANGER: Inhibition of human SW1990 cell growth in a cell viability assay.

SW626 = format: functional, cell-based, Homo sapiens; conditions: Homo sapiens, SW626;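 note: growth inhibition of SW626 cells, measured with a cell viability assay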
Description: SANGER: Inhibition of human SW626 cell growth in a cell viability assay.

SW872 = format: functional, cell-based, Homo sapiens; conditions: Homo sapiens, SW872;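 note: growth inhibition of SW872 cells, read out by a viability assay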
Description: SANGER: Inhibition of human SW872 cell growth in a cell viability assay.

SAOS-2 = format: functional, cell-based, Homo sapiens; conditions: Homo sapiens, SAOS-2;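 note: growth inhibition of human Saos-2 cells determined by a cell viability assay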
Description: SANGER: Inhibition of human Saos-2 cell growth in a cell viability assay.

SiHa = format: functional, cell-based, Homo sapiens; conditions: Homo sapiens, SiHa;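 note: Viability-based readout of growth inhibition in SiHa cells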
Description: SANGER: Inhibition of human SiHa cell growth in a cell viability assay.

TCC-SUP = format: functional, cell-based, Homo sapiens; conditions: Homo sapiens, TCC-SUP;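 note: growth inhibition of TCC-SUP cells, read out with a cell viability assay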
Description: SANGER: Inhibition of human TCCSUP cell growth in a cell viability assay.

ACN = format: functional, cell-based, Homo sapiens; conditions: Homo sapiens, ACN;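 note: growth inhibition of the human ACN cell line, read out via cell viability testing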
Description: SANGER: Inhibition of human ACN cell growth in a cell viability assay.

AN3-CA = format: functional, cell-based; conditions: Homo sapiens;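 note: growth inhibition of human AN3-CA cells measured by a cell viability assay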
Description: SANGER: Inhibition of human AN3-CA cell growth in a cell viability assay.

BPH-1 = format: functional, cell-based, Homo sapiens; conditions: Homo sapiens, BPH-1;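 note: cell viability assay measuring growth inhibition of human BPH-1 cells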
Description: SANGER: Inhibition of human BPH-1 cell growth in a cell viability assay.

C32 = format: functional, cell-based, Homo sapiens; conditions: Homo sapiens, C32;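 note: cell viability assay, with IC50 reflecting inhibition of C32 cell growth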
Description: SANGER: Inhibition of human C32 cell growth in a cell viability assay.

C3A = format: functional, cell-based, Homo sapiens; conditions: Homo sapiens, C3A;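 note: growth inhibition of C3A human cells, quantified with a cell viability readout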
Description: SANGER: Inhibition of human C3A cell growth in a cell viability assay.

CAKI-1 = format: functional, cell-based, Homo sapiens; conditions: Homo sapiens, CAKI-1;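 note: growth inhibition of CAKI-1 cells, measured by a cell viability assay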
Description: SANGER: Inhibition of human CAKI-1 cell growth in a cell viability assay.

CAL-62 = format: functional, cell-based, Homo sapiens; conditions: Homo sapiens, CAL-62;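 note: growth inhibition of CAL-62 cells, read out with a cell viability assay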
Description: SANGER: Inhibition of human CAL-62 cell growth in a cell viability assay.

CAL-85-1 = format: functional, cell-based; conditions: Homo sapiens;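 note: growth inhibition of human CAL-85-1 cells, read out with a cell viability assay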
Description: SANGER: Inhibition of human CAL-85-1 cell growth in a cell viability assay.

TE-8 = format: functional, cell-based, Homo sapiens; conditions: Homo sapiens, TE-8;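 note: growth inhibition of TE-8 cells, measured with a cell viability readout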
Description: SANGER: Inhibition of human TE-8 cell growth in a cell viability assay.

no-10 = format: functional, cell-based, Homo sapiens; conditions: Homo sapiens;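 note: growth inhibition of no-10 cells, read out with a cell viability assay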
Description: SANGER: Inhibition of human no-10 cell growth in a cell viability assay.

Measured: IC50

O=C1N=C(NCc2cccs2)S/C1=C\c1ccc2ncccc2c1
> 5 µM: COLO-792 | COLO-824 | COR-L23 | D-247MG | ES1 | ESS-1 | EOL1 | HCC1187 | HCC1395 | J-RT3-T3-5 | JVM-3 | KINGS-1 | KNS-42 | KS-1 | KYSE-70 cell line | LAN-6 | LN-405 | MG-63 | MPP-89 | NB5 | NCI-H2087 | NCI-H2347 | NCI-H292 | NCI-H358 | NCI-H661 | NCI-H82 | NKM-1 | OCUB-M | OVCAR-8 | RVH-421 | SAS | SF-126 | SK-LU-1 | SW1990 | SW626 | SW872 | SAOS-2 | SiHa | TCC-SUP | ACN | AN3-CA | C32 | C3A | CAKI-1 | CAL-62 | CAL-85-1 | TE-8 | no-10
4.74 µM: NCI-H2405
2.97 µM: BPH-1

CN(Cc1cnc2nc(N)nc(N)c2n1)c1ccc(C(=O)N[C@@H](CCC(=O)O)C(=O)O)cc1 [METHOTREXATE]
0.016 µM: JVM-3
0.122 µM: COR-L23
> 0.2 µM: COLO-792 | COLO-824 | D-247MG | ESS-1 | HCC1395 | KINGS-1 | KNS-42 | KS-1 | KYSE-70 cell line | LAN-6 | LN-405 | MPP-89 | NB5 | NCI-H2087 | NCI-H2347 | NCI-H2405 | NCI-H292 | NCI-H358 | NCI-H661 | NCI-H82 | OCUB-M | OVCAR-8 | RVH-421 | SAS | SF-126 | SK-LU-1 | SW1990 | SW626 | SW872 | SAOS-2 | SiHa | TCC-SUP | ACN | AN3-CA | BPH-1 | C32 | C3A | CAKI-1 | CAL-62 | CAL-85-1 | TE-8 | no-10
0.197 µM: MG-63
0.0194 µM: J-RT3-T3-5
0.0077 µM: NKM-1
0.0164 µM: ES1

O=C(c1cc(Cc2n[nH]c(=O)c3ccccc23)ccc1F)N1CCN(C(=O)C2CC2)CC1 [OLAPARIB]
1.11 µM: ES1
0.564 µM: EOL1
> 5 µM: COLO-792 | COLO-824 | COR-L23 | D-247MG | ESS-1 | HCC1395 | J-RT3-T3-5 | JVM-3 | KINGS-1 | KNS-42 | KS-1 | KYSE-70 cell line | LAN-6 | LN-405 | MG-63 | MPP-89 | NB5 | NCI-H2087 | NCI-H2347 | NCI-H2405 | NCI-H292 | NCI-H358 | NCI-H661 | NCI-H82 | OCUB-M | OVCAR-8 | RVH-421 | SAS | SF-126 | SK-LU-1 | SW1990 | SW626 | SW872 | SAOS-2 | SiHa | TCC-SUP | ACN | AN3-CA | BPH-1 | C32 | C3A | CAKI-1 | CAL-62 | CAL-85-1 | TE-8 | no-10
1.25 µM: NKM-1
